Experimental data taken from US20050222110A1, “Use of loteprednol etabonate for the treatment of dry eye” (priority 2004, published 2005).

Key:
[1] = Clinical trial in KCS patients: intraocular pressure; type: in vivo, human; conditions: one month of therapy; mean IOP and individual patients
Experimental: (§1) A randomized, double-masked, placebo-controlled, multicenter, pilot study was conducted in compliance with ICH Good Clinical Practice and the Declaration of Helsinki. Approval was obtained from an Institutional Review Board for each study site before initiating the study. Written informed consent was obtained from all patients before any study specific investigations were performed.
(§2) Patients were randomly assigned to receive either Lotemax® Bausch and Lomb Inc. Rochester N.Y., or placebo four times a day. Lotemax® (loteprednol etabonate ophthalmic suspension, 0.5%) was supplied in 7.5 mL (5.0 mL fill) white, low density polyethylene dropper bottles with white caps for masking purposes. Placebo (the vehicle of Lotemax®) was supplied in identical bottles. Preservative Free Moisture Eyes™ Lubricant Eye Drops (Bausch & Lomb) were supplied in unit dose containers.
(§3) Safety was assessed by fundoscopy, lens examination and biomicroscopy, by tests of visual acuity and intraocular pressure, and by monitoring adverse events and changes in symptomatology. Adverse events were evaluated by the investigator as to severity (mild, moderate, severe) and relationship of the event to the study drug (probable, possible, unlikely, or unknown).

[2] = system: keratoconjunctivitis sicca (KCS) in patients with delayed tear clearance; experiment: Clinical trial in KCS patients: corneal fluorescein staining score; type: in vivo, human; conditions: subset with more severe clinical inflammatory signs at entry
Experimental: as §1
In addition, they were required to meet the following criteria in at least one eye: • 1. delayed tear clearance defined by a standardized visual scale score ≧3^15 • 2. at least one symptom >30 mm on the visual analog scale (VAS) • 3. composite corneal staining score >3
Patients were randomly assigned to receive either Lotemax® Bausch and Lomb Inc. Rochester N.Y., or placebo four times a day. […]
Patients attended for 5 visits. […] The fluorescence was graded between 0 and 6 using a standard color comparison scale. […] The corneal staining was evaluated 5 minutes after the instillation of the 2% fluorescein, viewing the cornea through a slit lamp with blue light and a No. 11 Wratten filter (See Table 2 below).
As is traditional for studies of this kind, two primary variables were defined representing subjective evaluation by the patient and objective evaluation based on the clinical examination findings. […] Each area was scored according to the corneal staining grading scale (Table 2 above). […]

[3] = 0.2%; up to 3 years; 265 patients; allergic conjunctivitis; cited from earlier work
[4] = Clinical trial in KCS patients: adverse events and toxicity; type: in vivo, human; conditions: following one month of therapy
Experimental: as §1, §2, §3

## CCOC(=O)O[C@]1(C(=O)OCCl)CC[C@H]2[C@@H]3CCC4=CC(=O)C=C[C@]4(C)[C@H]3[C@@H](O)C[C@@]21C [loteprednol, (11β,17α),-17-[(Ethoxycarbonyl)oxy]-11-hydroxy-3-oxoandrosta-1,4-diene-17-carboxylic acid chloromethyl ester]
[1]
  Elevation of IOP: neither elevation of the mean IOP nor any individual with a clinically important elevation of the IOP
[2]; four weeks
  Central corneal fluorescein staining, improvement: ~20%
[2]; two weeks
  Central corneal fluorescein staining, improvement: approximately 30%
[3]
  Cataract formation: no cataract formation was observed
  Mean intraocular pressure compared to pretreatment values: not different from baseline
[4]
  Toxicity: complete lack of toxicity
